In ChEMBL document CHEMBL3596159, “Beyond substrate analogues: new inhibitor chemotypes for glycosyltransferases” (Medchemcomm, 2014):
≈ marks a conversion by molar mass, not a printed value.

Assays:
[1] = Inhibition of AAGlyB (unknown origin); design: species or system Homo sapiens
[2] = biological target: Histo-blood group ABO system transferase (Homo sapiens, UniProt P16442); assay: Inhibition of GTB (unknown origin)
[3] = Inhibition of alpha-(1,3)-GalT (unknown origin); design: species or system Homo sapiens
[4] = Inhibition of GTA (unknown origin); design: species or system Homo sapiens
[5] = biological target: T1, Beta-galactoside alpha-2,6-sialyltransferase 1 (Homo sapiens, UniProt P15907); assay: Inhibition of ST6Gal 1 (unknown origin)
T1 sequence (P15907 whole entry): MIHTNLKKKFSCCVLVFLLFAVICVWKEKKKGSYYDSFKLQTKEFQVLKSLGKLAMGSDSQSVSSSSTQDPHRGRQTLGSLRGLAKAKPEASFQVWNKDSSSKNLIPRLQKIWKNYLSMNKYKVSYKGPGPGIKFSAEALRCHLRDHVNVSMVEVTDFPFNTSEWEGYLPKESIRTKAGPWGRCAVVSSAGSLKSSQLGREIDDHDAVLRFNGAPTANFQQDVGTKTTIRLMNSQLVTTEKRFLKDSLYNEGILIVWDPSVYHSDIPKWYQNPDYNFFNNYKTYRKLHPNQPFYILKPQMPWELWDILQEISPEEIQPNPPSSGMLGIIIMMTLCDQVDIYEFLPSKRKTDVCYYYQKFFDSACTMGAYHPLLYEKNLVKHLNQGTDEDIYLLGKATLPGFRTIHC

[6] = biological target: T2, CMP-N-acetylneuraminate-beta-galactosamide-alpha-2,3-sialyltransferase 1 (Homo sapiens, UniProt Q11201); assay: Inhibition of ST3Gal 1 (unknown origin)
T2 sequence (Q11201 whole entry): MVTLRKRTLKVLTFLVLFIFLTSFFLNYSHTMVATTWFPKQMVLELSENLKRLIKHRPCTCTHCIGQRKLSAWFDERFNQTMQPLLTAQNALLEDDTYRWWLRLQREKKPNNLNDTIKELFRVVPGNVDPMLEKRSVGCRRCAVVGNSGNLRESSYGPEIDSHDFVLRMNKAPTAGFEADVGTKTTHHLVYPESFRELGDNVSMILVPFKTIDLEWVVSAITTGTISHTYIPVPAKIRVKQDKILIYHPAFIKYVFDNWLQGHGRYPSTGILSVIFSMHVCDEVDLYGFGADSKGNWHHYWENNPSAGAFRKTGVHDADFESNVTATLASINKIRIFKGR

[7] = Inhibition of methicillin-resistant Staphylococcus aureus MurG
Staphylococcus aureus = assay: Antimicrobial activity against methicillin-resistant Staphylococcus aureus; type: functional
[8] = Inhibition of Candida albicans chitin synthase
[9] = biological target: CMP-N-acetylneuraminate-beta-1,4-galactoside alpha-2,3-sialyltransferase (Rattus norvegicus, UniProt Q02734); assay: Inhibition of rat ST3Gal3
CMP-N-acetylneuraminate-beta-1,4-galactoside alpha-2,3-sialyltransferase (Rattus norvegicus, UniProt Q02734), sequence (Q02734 whole entry): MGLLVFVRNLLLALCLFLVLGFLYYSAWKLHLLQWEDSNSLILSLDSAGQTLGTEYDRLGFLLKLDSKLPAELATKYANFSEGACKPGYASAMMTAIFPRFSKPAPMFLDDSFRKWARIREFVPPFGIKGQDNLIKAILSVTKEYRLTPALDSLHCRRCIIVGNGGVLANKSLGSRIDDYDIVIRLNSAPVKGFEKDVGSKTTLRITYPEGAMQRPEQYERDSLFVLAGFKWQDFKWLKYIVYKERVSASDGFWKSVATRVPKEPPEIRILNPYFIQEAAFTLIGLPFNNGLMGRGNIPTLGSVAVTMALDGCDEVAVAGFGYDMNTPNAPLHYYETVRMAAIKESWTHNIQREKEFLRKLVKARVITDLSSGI

[10] = biological target: T1, Beta-galactoside alpha-2,6-sialyltransferase 1; assay: Inhibition of human ST6Gal1
[11] = biological target: Beta-galactoside alpha-2,6-sialyltransferase 1 (Rattus norvegicus, UniProt P13721); assay: Inhibition of rat ST6Gal1
Beta-galactoside alpha-2,6-sialyltransferase 1 (Rattus norvegicus, UniProt P13721), sequence (P13721 whole entry): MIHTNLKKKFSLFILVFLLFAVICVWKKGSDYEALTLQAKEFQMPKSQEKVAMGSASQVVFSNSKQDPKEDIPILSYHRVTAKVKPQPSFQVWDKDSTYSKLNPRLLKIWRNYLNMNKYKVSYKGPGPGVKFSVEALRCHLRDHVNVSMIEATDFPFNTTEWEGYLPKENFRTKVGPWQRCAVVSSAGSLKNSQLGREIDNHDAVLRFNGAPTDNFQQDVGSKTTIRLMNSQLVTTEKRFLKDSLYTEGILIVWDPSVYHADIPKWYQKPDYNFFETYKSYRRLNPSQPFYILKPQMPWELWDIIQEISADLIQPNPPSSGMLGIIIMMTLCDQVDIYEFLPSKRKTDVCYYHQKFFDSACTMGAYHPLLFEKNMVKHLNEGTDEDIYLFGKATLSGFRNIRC

[12] = Inhibition of sialyltransferase (unknown origin); design: species or system Homo sapiens
[13] = biological target: Alpha-(1,3)-fucosyltransferase 4 (Homo sapiens, UniProt P22083); assay: Inhibition of FucT-4 (unknown origin)
Alpha-(1,3)-fucosyltransferase 4, sequence (P22083 whole entry): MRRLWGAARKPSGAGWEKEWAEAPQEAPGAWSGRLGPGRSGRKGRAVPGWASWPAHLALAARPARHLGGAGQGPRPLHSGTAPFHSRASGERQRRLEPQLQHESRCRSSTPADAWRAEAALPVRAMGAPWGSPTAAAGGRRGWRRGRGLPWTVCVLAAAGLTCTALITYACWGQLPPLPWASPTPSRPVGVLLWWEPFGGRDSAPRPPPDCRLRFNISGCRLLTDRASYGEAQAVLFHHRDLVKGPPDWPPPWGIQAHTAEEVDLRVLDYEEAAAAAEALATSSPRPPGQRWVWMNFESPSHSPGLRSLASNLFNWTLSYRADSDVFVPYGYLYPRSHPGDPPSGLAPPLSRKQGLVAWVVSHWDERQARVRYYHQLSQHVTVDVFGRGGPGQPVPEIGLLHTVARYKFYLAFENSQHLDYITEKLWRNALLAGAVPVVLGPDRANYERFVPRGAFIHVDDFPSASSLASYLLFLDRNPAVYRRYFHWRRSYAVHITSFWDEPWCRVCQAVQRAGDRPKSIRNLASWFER

[14] = biological target: T3, CMP-N-acetylneuraminate-beta-1,4-galactoside alpha-2,3-sialyltransferase (Homo sapiens, UniProt Q11203); assay: Inhibition of ST3N (unknown origin)
T3 sequence (Q11203 whole entry): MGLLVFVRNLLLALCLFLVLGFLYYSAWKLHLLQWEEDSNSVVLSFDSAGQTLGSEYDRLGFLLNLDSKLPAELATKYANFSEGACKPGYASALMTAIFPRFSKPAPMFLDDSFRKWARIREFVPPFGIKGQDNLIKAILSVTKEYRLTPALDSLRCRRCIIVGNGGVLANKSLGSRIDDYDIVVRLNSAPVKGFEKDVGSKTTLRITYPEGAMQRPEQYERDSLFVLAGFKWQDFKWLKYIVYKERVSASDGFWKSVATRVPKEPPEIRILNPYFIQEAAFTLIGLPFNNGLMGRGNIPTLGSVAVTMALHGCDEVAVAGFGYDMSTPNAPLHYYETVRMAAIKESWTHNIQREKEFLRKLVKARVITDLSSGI

[15] = biological target: T4, 4-galactosyl-N-acetylglucosaminide 3-alpha-L-fucosyltransferase FUT5 (Homo sapiens, UniProt Q11128); assay: Inhibition of FucT-5 (unknown origin)
T4 sequence (Q11128 whole entry): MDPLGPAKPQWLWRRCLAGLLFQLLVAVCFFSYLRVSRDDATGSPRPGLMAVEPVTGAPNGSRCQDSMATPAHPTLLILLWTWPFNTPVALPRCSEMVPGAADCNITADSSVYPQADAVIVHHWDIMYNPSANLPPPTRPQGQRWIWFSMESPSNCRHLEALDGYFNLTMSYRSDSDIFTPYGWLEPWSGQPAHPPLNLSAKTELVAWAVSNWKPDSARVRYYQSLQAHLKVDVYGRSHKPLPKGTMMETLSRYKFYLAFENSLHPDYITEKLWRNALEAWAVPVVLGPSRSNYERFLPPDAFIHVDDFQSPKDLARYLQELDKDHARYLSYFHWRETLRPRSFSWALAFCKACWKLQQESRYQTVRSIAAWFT

[16] = biological target: T1, Beta-galactoside alpha-2,6-sialyltransferase 1; assay: Inhibition of ST6N (unknown origin)
[17] = biological target: T4, 4-galactosyl-N-acetylglucosaminide 3-alpha-L-fucosyltransferase FUT5; assay: Uncompetitive inhibition of FucT-5 (unknown origin) using GDP-fucose as donor substrate
[18] = biological target: T4, 4-galactosyl-N-acetylglucosaminide 3-alpha-L-fucosyltransferase FUT5; assay: Non-competitive inhibition of FucT-5 (unknown origin) using LacNAc as acceptor substrate
[19] = biological target: T5, 4-galactosyl-N-acetylglucosaminide 3-alpha-L-fucosyltransferase FUT6 (Homo sapiens, UniProt P51993); assay: Inhibition of FucT-6 (unknown origin)
T5 sequence (P51993 whole entry): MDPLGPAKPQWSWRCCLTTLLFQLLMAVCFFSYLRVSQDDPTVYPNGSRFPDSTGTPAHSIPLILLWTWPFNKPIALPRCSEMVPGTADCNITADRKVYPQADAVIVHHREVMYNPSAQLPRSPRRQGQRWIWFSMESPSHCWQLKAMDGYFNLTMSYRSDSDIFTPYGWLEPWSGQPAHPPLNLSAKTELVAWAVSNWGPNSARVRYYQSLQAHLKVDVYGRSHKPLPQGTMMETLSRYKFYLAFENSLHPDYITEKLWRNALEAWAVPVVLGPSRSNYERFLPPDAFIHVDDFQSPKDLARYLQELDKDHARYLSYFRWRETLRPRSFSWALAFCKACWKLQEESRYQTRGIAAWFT

Histo-blood group ABO system transferase, sequence (P16442 whole entry): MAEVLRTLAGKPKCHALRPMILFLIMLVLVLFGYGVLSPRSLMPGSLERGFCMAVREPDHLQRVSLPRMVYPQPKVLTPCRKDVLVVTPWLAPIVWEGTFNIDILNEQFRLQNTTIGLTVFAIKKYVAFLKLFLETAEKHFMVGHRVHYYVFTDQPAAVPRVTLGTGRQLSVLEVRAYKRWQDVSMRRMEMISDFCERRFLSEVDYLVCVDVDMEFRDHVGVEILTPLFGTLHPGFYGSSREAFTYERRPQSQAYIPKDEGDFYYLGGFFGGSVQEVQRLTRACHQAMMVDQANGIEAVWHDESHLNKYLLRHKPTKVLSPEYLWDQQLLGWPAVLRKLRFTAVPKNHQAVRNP

Structure (SMILES): c1ccc(-c2nsc(N3CCNCC3)n2)cc1
- Ki [1]: > 15000 µM
- Ki [2]: 800 µM
- Ki [3]: 6300 µM
- Ki [4]: 5100 µM

Structure (SMILES): C[C@H](CCC(=O)O)[C@H]1CC[C@H]2[C@@H]3CC[C@@H]4C[C@H](OC(=O)[C@H](CCC(=O)O)Nc5ccc([N+](=O)[O-])c6nonc56)CC[C@]4(C)[C@H]3CC[C@]12C
- IC50 [5]: 1.5 µM
- IC50 [6]: 0.88 µM

Structure (SMILES): C[C@]12Cc3cnn(-c4ccncc4)c3C=C1CC[C@@H]1[C@@H]2CC[C@@]2(C)[C@H]1CC[C@]2(O)C(=O)CO
- IC50 [7]: 115 µg/mL (≈ 257 µM)
- MIC (Staphylococcus aureus): 2 µg/mL (≈ 4.47 µM)

Structure (SMILES): C[C@@H]([C@H](N)C(=O)N[C@H](C(=O)O)[C@H]1O[C@@H](n2ccc(=O)[nH]c2=O)[C@H](O)[C@@H]1O)[C@H](O)c1ccc(O)cn1 [NIKKOMYCIN]
- Ki [8]: 0.16 µM

Structure (SMILES): O=c1cc(-c2ccc(O)c(O)c2)oc2ccccc12
- IC50 [9]: 1.4 µM
- IC50 [10]: 7.1 µM
- IC50 [11]: 5.1 µM

Structure (SMILES): O=C(O)c1cc(O)c(O)c(O)c1 [GALLIC ACID]
- IC50 [12]: 19 µM
- IC50 [13]: 14 µM

Structure (SMILES): C[C@@H]1CC[C@H]2C(C)(C)[C@H](O)CC[C@]2(C)[C@@]12Cc1c(O)cc(C=O)c(C=O)c1O2
- IC50 [14]: 10 µM
- IC50 [6]: 6.7 µM
- IC50 [15]: 11.3 µM
- IC50 [16]: 0.61 µM
- Ki [17]: 10.7 µM
- Ki [18]: 9.7 µM
- IC50 [19]: 20.9 µM
